In patent US20060275217A1, “Chemical exchange saturation transfer contrast agents” (priority 2005, published 2006):

System: blood pool
Assay: Mouse CEST MR imaging at 4.7T
Assay type: in vivo
Conditions: mouse sacrificed 1 minute after injection, ~0.6 mmol Eu(II)/kg, saturation at -52 ppm vs +52 ppm
Description: Data was recorded at 4.7T on Bruker MR imager in a mouse sacrificed 1 minute after injection of Eu-polyLysine CEST (Example 4a) compound in water at a ˜0.6 mmol Eu(II)/kg dose (saturation pulse with a power of ˜25 μT for 2.0 s using 1000 Gauss pulses of 2 ms each).
Reference tubes contain from left to right: water, compound at 10 mM Eu(III) concentration, compound at 50 mM Eu(III) concentration and, Magnevist at a concentration such that T1˜1s.

Substance: polylysine conjugate with the europium complex of 1,4,7,10-tetra-[N-(carboxymethyl)-carbamoyl-methyl]1,4,7,10-tetraaza-cyclododecane [Example 4a]
- contrast in digital difference axial image (control minus CEST image): contrast enhancement in the blood pool
